Data taken from ChEMBL document CHEMBL5370616, “Novel Nitric Oxide Donor-Azole Conjugation Strategy for Efficient Treatment of Cryptococcus neoformans Infections” (J Med Chem, 2023).
Converted amounts (≈) assume the structure as drawn. The source made the active and inactive calls. The rule behind the calls is not given here.

What follows are compounds tested on Candida albicans (assay: Antifungal activity against Candida albicans SC5314 assessed as reduction in fungal growth incubated for 48 hrs by CLSI protocol based microplate reader analysis). Details: not given.
Format: functional

| SMILES | MIC80 [µg/mL] |
| --- | --- |
| CN(Cc1ccc(OCCCOc2ccc(CC(=O)OCCCCCO[N+](=O)[O-])cc2)cc1)CC(O)(Cn1cncn1)c1ccc(F)cc1F (stereo not drawn) | 1 (≈ 1.43 µM) |
| CN(Cc1ccc(OCCCOc2ccc(CC(=O)OCCCCCOc3no[n+]([O-])c3S(=O)(=O)c3ccccc3)cc2)cc1)CC(O)(Cn1cncn1)c1ccc(F)cc1F (stereo not drawn) | 4 (≈ 4.56 µM) |
| CN(Cc1ccc(OCCCOc2ccc(CC(=O)NCCOc3no[n+]([O-])c3S(=O)(=O)c3ccccc3)cc2)cc1)CC(O)(Cn1cncn1)c1ccc(F)cc1F (stereo not drawn) | 2 (≈ 2.4 µM) |
| CCN(CC)/[N+]([O-])=N/Oc1cc(N(C)CC(O)(Cn2cncn2)c2ccc(F)cc2F)c([N+](=O)[O-])cc1[N+](=O)[O-] (stereo not drawn) | > 64 |
| CN(Cc1ccc(OCCCOc2ccc(CC(=O)O[C@H]3CO[C@H]4[C@@H]3OC[C@H]4O[N+](=O)[O-])cc2)cc1)CC(O)(Cn1cncn1)c1ccc(F)cc1F (stereo partly drawn) | 4 (≈ 5.41 µM) |
| OC(Cn1cncn1)(Cn1cncn1)c1ccc(F)cc1F [FLUCONAZOLE] | 0.5 (≈ 1.63 µM) |

Each compound was assayed on Nakaseomyces glabratus (assay: Antifungal activity against Candida glabrata 10639 assessed as reduction in fungal growth incubated for 48 hrs by CLSI protocol based microplate reader analysis). Details: not given.
Format: functional

| SMILES | MIC80 [µg/mL] |
| --- | --- |
| CN(Cc1ccc(OCCCOc2ccc(CC(=O)OCCCCCO[N+](=O)[O-])cc2)cc1)CC(O)(Cn1cncn1)c1ccc(F)cc1F (stereo not drawn) | 0.5 (≈ 0.717 µM) |
| CN(Cc1ccc(OCCCOc2ccc(CC(=O)OCCCCCOc3no[n+]([O-])c3S(=O)(=O)c3ccccc3)cc2)cc1)CC(O)(Cn1cncn1)c1ccc(F)cc1F (stereo not drawn) | 4 (≈ 4.56 µM) |
| CN(Cc1ccc(OCCCOc2ccc(CC(=O)NCCOc3no[n+]([O-])c3S(=O)(=O)c3ccccc3)cc2)cc1)CC(O)(Cn1cncn1)c1ccc(F)cc1F (stereo not drawn) | 1 (≈ 1.2 µM) |
| CCN(CC)/[N+]([O-])=N/Oc1cc(N(C)CC(O)(Cn2cncn2)c2ccc(F)cc2F)c([N+](=O)[O-])cc1[N+](=O)[O-] (stereo not drawn) | > 64 |
| CN(Cc1ccc(OCCCOc2ccc(CC(=O)O[C@H]3CO[C@H]4[C@@H]3OC[C@H]4O[N+](=O)[O-])cc2)cc1)CC(O)(Cn1cncn1)c1ccc(F)cc1F (stereo partly drawn) | 0.5 (≈ 0.676 µM) |
| OC(Cn1cncn1)(Cn1cncn1)c1ccc(F)cc1F [FLUCONAZOLE] | 2 (≈ 6.53 µM) |

What follows are compounds tested on Cryptococcus neoformans (assay: Antifungal activity against Cryptococcus neoformans H99 assessed as reduction in fungal growth incubated for 72 hrs by CLSI protocol based microplate reader analysis). Details: not given.
Format: functional

| SMILES | MIC80 [µg/mL] |
| --- | --- |
| CN(Cc1ccc(OCCCOc2ccc(CC(=O)OCCCCCO[N+](=O)[O-])cc2)cc1)CC(O)(Cn1cncn1)c1ccc(F)cc1F (stereo not drawn) | 0.5 (≈ 0.717 µM) |
| CN(Cc1ccc(OCCCOc2ccc(CC(=O)OCCCCCOc3no[n+]([O-])c3S(=O)(=O)c3ccccc3)cc2)cc1)CC(O)(Cn1cncn1)c1ccc(F)cc1F (stereo not drawn) | 4 (≈ 4.56 µM) |
| CN(Cc1ccc(OCCCOc2ccc(CC(=O)NCCOc3no[n+]([O-])c3S(=O)(=O)c3ccccc3)cc2)cc1)CC(O)(Cn1cncn1)c1ccc(F)cc1F (stereo not drawn) | 1 (≈ 1.2 µM) |
| CCN(CC)/[N+]([O-])=N/Oc1cc(N(C)CC(O)(Cn2cncn2)c2ccc(F)cc2F)c([N+](=O)[O-])cc1[N+](=O)[O-] (stereo not drawn) | 64 (≈ 113 µM) |
| CN(Cc1ccc(OCCCOc2ccc(CC(=O)O[C@H]3CO[C@H]4[C@@H]3OC[C@H]4O[N+](=O)[O-])cc2)cc1)CC(O)(Cn1cncn1)c1ccc(F)cc1F (stereo partly drawn) | 1 (≈ 1.35 µM) |
| OC(Cn1cncn1)(Cn1cncn1)c1ccc(F)cc1F [FLUCONAZOLE] | 2 (≈ 6.53 µM) |

The compounds below were run on Candida albicans (assay: Antifungal activity against Candida albicans 0304103 assessed as reduction in fungal growth incubated for 48 hrs by CLSI protocol based microplate reader analysis). Details: not given.
Format: functional

| SMILES | MIC80 [µg/mL] |
| --- | --- |
| CN(Cc1ccc(OCCCOc2ccc(CC(=O)OCCCCCO[N+](=O)[O-])cc2)cc1)CC(O)(Cn1cncn1)c1ccc(F)cc1F (stereo not drawn) | > 64 |
| CN(Cc1ccc(OCCCOc2ccc(CC(=O)OCCCCCOc3no[n+]([O-])c3S(=O)(=O)c3ccccc3)cc2)cc1)CC(O)(Cn1cncn1)c1ccc(F)cc1F (stereo not drawn) | > 64 |
| CN(Cc1ccc(OCCCOc2ccc(CC(=O)NCCOc3no[n+]([O-])c3S(=O)(=O)c3ccccc3)cc2)cc1)CC(O)(Cn1cncn1)c1ccc(F)cc1F (stereo not drawn) | > 64 |
| CCN(CC)/[N+]([O-])=N/Oc1cc(N(C)CC(O)(Cn2cncn2)c2ccc(F)cc2F)c([N+](=O)[O-])cc1[N+](=O)[O-] (stereo not drawn) | > 64 |
| CN(Cc1ccc(OCCCOc2ccc(CC(=O)O[C@H]3CO[C@H]4[C@@H]3OC[C@H]4O[N+](=O)[O-])cc2)cc1)CC(O)(Cn1cncn1)c1ccc(F)cc1F (stereo partly drawn) | 8 (≈ 10.8 µM) |
| OC(Cn1cncn1)(Cn1cncn1)c1ccc(F)cc1F [FLUCONAZOLE] | > 64 |

What follows are compounds tested on Cryptococcus neoformans (assay: Antifungal activity against Cryptococcus neoformans H99 assessed as reduction in fungal growth at 4 ug/ml incubated upto 72 hrs by microplate reader analysis). Details: dose 4.0 µg/ml.
Format: functional, organism-based

| SMILES | Activity |
| --- | --- |
| OC(Cn1cncn1)(Cn1cncn1)c1ccc(F)cc1F [FLUCONAZOLE] | inactive |

Each compound was assayed on Cryptococcus neoformans (assay: Antifungal activity against Cryptococcus neoformans H99 assessed as reduction in number of colonies at 0.125 to 1 ug/ml incubated for 72 hrs by agar disk diffusion assay). Details: dose 0.125-1 µg/ml.
Format: functional

| SMILES | Activity |
| --- | --- |
| OC(Cn1cncn1)(Cn1cncn1)c1ccc(F)cc1F [FLUCONAZOLE] | inactive |

These compounds were tested on Cryptococcus neoformans (assay: Disruption of preformed mature biofilm in Cryptococcus neoformans H99 assessed as removal of mature biofilm at 0.125 to 32 ug/ml incubated for 24 hrs by XTT reduction assay). Details: dose 0.125-32 µg/ml.
Format: functional, organism-based

| SMILES | Activity |
| --- | --- |
| OC(Cn1cncn1)(Cn1cncn1)c1ccc(F)cc1F [FLUCONAZOLE] | inactive |

What follows are compounds tested on Cryptococcus neoformans (assay: Inhibition of CYP51 in Cryptococcus neoformans H99 assessed as reduction in ergosterol level at 4 ug/ml incubated for 24 hrs by GC-MS analysis (Rvb= 58.33%)). Details: dose 4.0 µg/ml.

| SMILES | inhibition [%] |
| --- | --- |
| OC(Cn1cncn1)(Cn1cncn1)c1ccc(F)cc1F [FLUCONAZOLE] | 19.2 |

Each compound was assayed on Cryptococcus neoformans (assay: Inhibition of CYP51 in Cryptococcus neoformans H99 assessed as increase in lanosterol level at 4 ug/ml incubated for 24 hrs by GC-MS analysis (Rvb= 6.24%)). Details: dose 4.0 µg/ml.

| SMILES | inhibition [%] |
| --- | --- |
| OC(Cn1cncn1)(Cn1cncn1)c1ccc(F)cc1F [FLUCONAZOLE] | 53.9 |

Each compound was assayed on Cryptococcus neoformans (assay: Inhibition of CYP51 in Cryptococcus neoformans H99 assessed as decrease in unknown sterol level at 4 ug/ml incubated for 24 hrs by GC-MS analysis (Rvb= 22.95%)). Details: dose 4.0 µg/ml.

| SMILES | inhibition [%] |
| --- | --- |
| OC(Cn1cncn1)(Cn1cncn1)c1ccc(F)cc1F [FLUCONAZOLE] | 5.55 |

The compounds below were run on Cryptococcus neoformans (assay: Inhibition of CYP51 in Cryptococcus neoformans H99 assessed as increase in other unknown sterol level at 4 ug/ml incubated for 24 hrs by GC-MS analysis (Rvb= 12.49%)). Details: dose 4.0 µg/ml.

| SMILES | inhibition [%] |
| --- | --- |
| OC(Cn1cncn1)(Cn1cncn1)c1ccc(F)cc1F [FLUCONAZOLE] | 21.4 |

These compounds were tested on Cryptococcus neoformans (assay: Antifungal activity against Cryptococcus neoformans H99 assessed as change in internal microstructure by observing cell membrane damage at 4 ug/ml incubated for 8 hrs by TEM analysis). Details: dose 4.0 µg/ml.
Format: functional, organism-based

| SMILES | Activity |
| --- | --- |
| OC(Cn1cncn1)(Cn1cncn1)c1ccc(F)cc1F [FLUCONAZOLE] | Active |

The compounds below were run on Cryptococcus neoformans (assay: Antifungal activity against Cryptococcus neoformans H99 assessed as change in internal microstructure by observing sparse capsule at 4 ug/ml incubated for 8 hrs by TEM analysis). Details: dose 4.0 µg/ml.
Format: functional, organism-based

| SMILES | Activity |
| --- | --- |
| OC(Cn1cncn1)(Cn1cncn1)c1ccc(F)cc1F [FLUCONAZOLE] | inactive |
